“And” between values parts separate entries of the source, which are not always exact repeats. Identical values can stand only once. Like-named read-outs stand apart in the source and are kept apart here.
What was measured:
[1] = tested on: IL-6 production, LPS stimulated RAW264.7 cells; assay: IL-6 levels (ELISA) in supernatants of LPS stimulated RAW264.7 cells; type: cell-based, mouse
Procedure: Raw264.7 cells (leukemia transformed monocytic-macrophage cell line derived from mouse ascitic fluid) were grown in Dulbecco's Modified Eagle's Medium enriched with glutamine and fetal calf serum and maintained at 37° C. and 5% CO2.
Two experimental parts were performed.

[2] = Schumann et al. 2020; cited from earlier work
[3] = Body weight in pilot study of collagen induced arthritis (CIA) in mice; conditions: MP1032 1 mg/kg/day alone, intraperitoneally
[4] = Case report rheumatoid arthritis; type: in vivo, human; conditions: person, 10 mg prednisone retard tablets once daily
Text: A person was diagnosed with rheumatoid arthritis a few months after experiencing first symptoms.

C[C@@H]1C[C@H]2[C@@H]3CCC4=CC(=O)C=C[C@]4(C)[C@@]3(F)[C@@H](O)C[C@]2(C)[C@@]1(O)C(=O)CO [Dexamethasone, dexamethasone, reference compound]
Percentage inhibition of IL-6 production ([1]; Exp Part 1, dexamethasone 0.01 μM alone): 34.66%
inhibition at 0.01 µM ([1]; Mus musculus, RAW264.7, Exp Part 1, dexamethasone 0.01 μM alone, read-out: Percentage inhibition of IL-6 production): 34.7%
inhibition at 0.1 µM ([1]; Mus musculus, RAW264.7, Exp Part 1, dexamethasone 0.1 μM alone, read-out: Percentage inhibition of IL-6 production): 63.8%
inhibition at 1 µM ([1]; Mus musculus, RAW264.7, Exp Part 1, dexamethasone 1 μM alone, read-out: Percentage inhibition of IL-6 production): 87%
inhibition at 0.0003 µM ([1]; Mus musculus, RAW264.7, Exp Part 2, dexamethasone 0.0003 μM alone, read-out: Percentage inhibition of IL-6 production): 1.57%
inhibition at 0.0006 µM ([1]; Mus musculus, RAW264.7, Exp Part 2, dexamethasone 0.0006 μM alone, read-out: Percentage inhibition of IL-6 production): 4.07%
inhibition at 0.0012 µM ([1]; Mus musculus, RAW264.7, Exp Part 2, dexamethasone 0.0012 μM alone, read-out: Percentage inhibition of IL-6 production): 0%
inhibition at 0.0025 µM ([1]; Mus musculus, RAW264.7, Exp Part 2, dexamethasone 0.0025 μM alone, read-out: Percentage inhibition of IL-6 production): 4.16%
inhibition at 0.005 µM ([1]; Mus musculus, RAW264.7, Exp Part 2, dexamethasone 0.005 μM alone, read-out: Percentage inhibition of IL-6 production): 30.6%
inhibition at 0.01 µM ([1]; Mus musculus, RAW264.7, Exp Part 2, dexamethasone 0.01 μM alone, read-out: Percentage inhibition of IL-6 production): 36.3%

Nc1cccc2c(=O)[nH][nH]c(=O)c12
tolerability [2]: well tolerated

Nc1cccc2c(=O)[nH][nH]c(=O)c12.[Na]
Percentage inhibition of IL-6 production ([1]; Exp Part 1, MP1032 0.025 mM alone, sodium salt): 17% and 17.03%
Percentage inhibition of IL-6 production ([1]; Exp Part 1, MP1032 0.05 mM alone, sodium salt): 25.8% and 25.77%
Percentage inhibition of IL-6 production ([1]; Exp Part 1, MP1032 0.1 mM alone): 44.85%
Percentage inhibition of IL-6 production ([1]; Exp Part 1, MP1032 0.25 mM alone): 53.95%
Percentage inhibition of IL-6 production ([1]; Exp Part 1, MP1032 0.5 mM alone): 56.70%
Percentage inhibition of IL-6 production ([1]; Exp Part 1, MP1032 1 mM alone): 72.75%
Percentage inhibition of IL-6 production ([1]; Exp Part 2, MP1032 0.025 mM alone): 1.57%
Percentage inhibition of IL-6 production ([1]; Exp Part 2, MP1032 0.05 mM alone): 0%
Percentage inhibition of IL-6 production ([1]; Exp Part 2, MP1032 0.1 mM alone): 0%
Percentage inhibition of IL-6 production ([1]; Exp Part 2, MP1032 0.25 mM alone): 13.85%
Percentage inhibition of IL-6 production ([1]; Exp Part 2, MP1032 0.5 mM alone): 47.52%
Percentage inhibition of IL-6 production ([1]; Exp Part 2, MP1032 1 mM alone): 67.30%
Body weight on day 45, median [3]: (23.6, n = 11) g

C[C@]12C=CC(=O)C=C1CC[C@@H]1[C@@H]2C(=O)C[C@@]2(C)[C@H]1CC[C@]2(O)C(=O)CO [prednisone]
pain and inflammation ([4]; rheumatoid arthritis, within months): improved
body weight [4]: started to gain weight

Source: patent US20230241060A1, “GLUCOCORTICOID-SPARING AGENT” (METRIOPHARM AG, priority 2020, published 2023)
